# From publication PMC9879939, “Synergy of ruthenium metallo-intercalator, [Ru(dppz)2(PIP)]^2+, with PARP inhibitor Olaparib in non-small cell lung cancer cells” (Scientific Reports, 2023)
# “And” between values parts separate entries of the source, which are not always exact repeats. Identical values can stand only once.
# Key:
# [1] = system: zebrafish embryos; experiment: Acute toxicity test on zebrafish embryos (OECD Test No. 236); settings: zebrafish embryos
# Description: The newly fertilized eggs at less than 1 hpf (hours post fertilization) were collected, washed with deionized water and incubated at RT (28 ± 1 °C) in Danio-SprintM embryo media. […] Untreated control consisting of Danio-SprintM embryo media containing 0.1% DMSO. 24 embryos were used in total for each concentration per treatment of two independent experiments (n = 24). The zebrafish embryos development was observed and imaged using a light microscope attached to a digital camera at 24, 48, 72 and 96 hpf (hours post fertilization). Four lethal endpoints were evaluated including coagulated embryos, lack of somite formation, non-detachment of the tail and lack of heartbeat. All these characteristics were recorded every 24 hpf, except heartbeat, which is visible after 48 hpf. […] Hatching which is also considered as a sensitive endpoint toxicity parameter was also observed in which hatching normally occurs at 48 to 72 hpf.
# [2] = system: H1975 lung cancer cells; experiment: MTT assay (cell viability; CI and SI derived from it); type: cell-based, human; settings: for IC50: H1975, max tested 100 μM, combinations: Ru-PIP gradient with fixed Olaparib; for Selectivity Index (SI) = IC50 normal cells/IC50 cancer cells: MRC5 vs H1975
# Description: (§1) Cells were seeded in 96-well plates at 5 × 10^3 cells/well and allowed to adhere overnight. […] For drug combination treatment, cells were treated with concentration gradient of Ru-PIP (3.125–100 µM) in combination with Olaparib (5 or 10 µM). After 24, 48 or 72 h incubation, 0.5 mg/ml thiazolyl blue tetrazolium bromide (MTT) dissolved in 1X PBS was added to each well and cells were incubated at 37 °C for 4 h. 100 µl of DMSO was added to each well to solubilize the reduced purple formazan crystals formed. Next, the absorbance at 570 nm (630 nm as reference wavelength) was measured using a microplate reader. The half maximal inhibitory concentration (IC50) for each compound was determined using GraphPad Prism software. Additionally, selectivity indices (SI) were determined by the ratio between IC50 of normal cells and that of cancer cells.
# (§2) Based on the data obtained from MTT assay, combination indices (CI) were determined using Calcusyn and CompuSyn software (Biosoft, Cambridge, UK). This is based on the established drugs combination method by Chou and Talalay[30],[31]. CI values indicate the type of drugs interaction in which CI < 0.9 indicates synergism, CI = 0.9–1.0 indicates additive and CI > 1.0 indicates antagonism. GraphPad Prism software was used to generate a three-color scale based on CI values obtained, where synergism is represented by green, additive by yellow, and antagonism by red in which the colors of each CI value were interpolated in between these constraints accordingly.
# [3] = system: T24 bladder cancer cells; experiment: as above; type: cell-based, human; settings: for Selectivity Index (SI) = IC50 normal cells/IC50 cancer cells: MRC5 vs T24; for IC50: T24, max tested 100 μM, combinations: Ru-PIP gradient with fixed Olaparib
# Description: as §1, §2
# [4] = system: A549 lung cancer cells; experiment: as above; type: cell-based, human; settings: for IC50: A549, max tested 100 μM, combinations: Ru-PIP gradient with fixed Olaparib; for Selectivity Index (SI) = IC50 normal cells/IC50 cancer cells: MRC5 vs A549
# Description: as §1, §2
# [5] = system: A549, H1975 and T24 cells; experiment: MTT assay, summary statements over the cancer cell lines; type: cell-based, human; settings: 72 h treatments; A549, H1975 and T24 cells vs normal MRC5 cells
# Description: as §1
# [6] = system: A549 cells; experiment: Cell cycle analysis (PI staining, flow cytometry); type: cell-based, human; settings: Ru-PIP 25 µM, 24 h
# Description: Lung cancer cells were seeded in 6-well plate at density of 1 × 10^5 cells/well and allowed to adhere overnight. Cells were treated with Ru-PIP (25 µM), Olaparib (5 µM) or both. After 24 or 48 h incubations, cells were harvested, washed with 1X PBS twice, and fixed with ice-cold 70% ethanol at least overnight at − 20 °C. The fixed cells were collected by centrifugation at 1,000 rpm for 5 min and the resulting pellets were washed with 1X PBS twice. The samples were resuspended in 500 µl PBS and treated with 5 µl RNase A solution (10 mg/ml) for 15 min at RT. After incubation, the samples were stained with 2 µl of propidium iodide (PI) solution (5 mg/ml) at RT, in the dark. Samples were acquired, and cell cycle distribution was analyzed using NovoCyte flow cytometer and NovoExpress software. For each sample, a minimum of 10,000 cells were counted and analyzed.
# [7] = system: MRC5 normal human lung fibroblasts; experiment: MTT assay (cell viability); type: cell-based; settings: max tested 100 μM, combinations: Ru-PIP gradient with fixed Olaparib
# Description: as §1
# [8] = system: A549 cells; experiment: Wound healing assay; type: cell-based, human; settings: Ru-PIP 25 µM, time point not stated (untreated 100% closed at 72 h)
# Description: Lung cancer cells were seeded at density of 5 × 10^5 cells/well in a 6-well plate and were incubated in the incubator until a confluent monolayer of cells formed. After serum-starved for 4 h, a straight scratch was made in each well with a sterile 200 µl pipette tip, solution was removed, and each well was washed with 1X PBS twice. Cells were treated with Ru-PIP (25 µM), Olaparib (5 µM) or both. Cells migration in the wound scratch area was photographed at 0, 24, 48 and 72 h timepoints. Images were photographed at 10 × magnification using a camera attached microscope and were analyzed using ImageJ software. The percentage of wound scratch closure was determined by measuring the reduction in the wound area at each time point by comparing to 0 h (100%).
# [9] = system: A549 cells; experiment: Apoptosis annexin V-FITC assay; type: cell-based, human
# Description: Lung cancer cells were seeded in 6-well plate at 1 × 10^5 cells/well and allowed to adhere overnight. Cells were treated with Ru-PIP (25 µM), Olaparib (5 µM) or both. After 24 or 48 h incubations, cells were harvested, washed with 1X PBS twice and 500 µl of 1X binding buffer was added to the samples. After, the samples were incubated with 5 µl Annexin V-FITC (Invitrogen) for 20 min at RT. Prior to flow cytometric analysis, 5 µl of PI was added. Samples were acquired was analyzed using NovoCyte flow cytometer and NovoExpress software. For each sample, a minimum of 10,000 cells were counted and analyzed.
smiles,measurement,setting,value
"[Ru+2].c1ccc(-c2nc3c4cccnc4c4ncccc4c3[nH]2)cc1.c1ccc2nc3c4cccnc4c4ncccc4c3nc2c1.c1ccc2nc3c4cccnc4c4ncccc4c3nc2c1 [Ru-PIP, [Ru(dppz)2(PIP)]^2+]",embryos showing yolk sac edema,"[1]; 50 mg/L Ru-PIP alone, 96 hpf",33%
same,embryos' hatching prevented,[1]; 100 mg/L,~100%
same,96 h LC50,[1]; 96 h treatment,57.5 µg/mL and 55.5 µg/mL
same,survival and morphological changes of embryos,[1]; < 25 mg/L,the embryos survive without any morphological defects
same,IC50,[2]; 24 h,> 100 µM
same,IC50,[2]; 48 h,95.1 ± 2.9 µM
same,IC50,[2]; 72 h,59.4 ± 11.6 µM
same,Selectivity Index (SI) = IC50 normal cells/IC50 cancer cells,[2]; 48 h,0.9
same,Selectivity Index (SI) = IC50 normal cells/IC50 cancer cells,[2]; 72 h,>1.6
same,Selectivity Index (SI) = IC50 normal cells/IC50 cancer cells,[3]; 24 h,>2.2
same,Selectivity Index (SI) = IC50 normal cells/IC50 cancer cells,[3]; 48 h,4.0
same,Selectivity Index (SI) = IC50 normal cells/IC50 cancer cells,[3]; 72 h,>6.3
same,IC50,[3]; 24 h,45.1 ± 6.2 µM
same,IC50,[3]; 48 h,22.7 ± 2.8 µM
same,IC50,[3]; 72 h,15.8 ± 2.9 µM
same,IC50,[4]; 24 h,34.5 ± 10.5 µM
same,IC50,[4]; 48 h,19.4 ± 3.5 µM
same,IC50,[4]; 72 h,11.4 ± 0.3 µM
same,Selectivity Index (SI) = IC50 normal cells/IC50 cancer cells,[4]; 24 h,>2.8
same,Selectivity Index (SI) = IC50 normal cells/IC50 cancer cells,[4]; 48 h,4.6
same,Selectivity Index (SI) = IC50 normal cells/IC50 cancer cells,[4]; 72 h,> 8.7
same,selectivity indices (SI),[5],> 1.6
same,increase in G1 phase compared to control,[6],16.1%
same,IC50,[7]; 24 h,> 100 µM
same,IC50,[7]; 48 h,91 ± 7.9 µM
same,IC50,[7]; 72 h,> 100 µM
same,wound closure,[8],88%
same,levels of apoptotic cells,"[9]; 24 h, Ru-PIP 25 µM or Olaparib 5 µM",comparable levels of apoptotic cells with untreated control
same,levels of apoptotic cells,"[9]; 48 h, Ru-PIP 25 µM alone or with Olaparib 5 µM",increase in apoptotic cells was observed
